Assay results published in patent US20250171430A1, “PYRAZOLYL COMPOUNDS AS KV7 CHANNEL ACTIVATORS” (Biohaven Therapeutics Ltd., priority 2022, published 2025).

target: T1, Kv7.2/7.3 (Homo sapiens, UniProt O43525+O43526); assay: Kv7.2/7.3 Activation Assay (Thallium Flux Assay); assay type: cell-based; conditions: hKV7.2/7.3 cell line; test compound at single concentration of 10 μM; fluorescence at 90 sec normalized to positive control (retigabine, 30 μM)
T1 construct: Kv7.2 tetracycline-induced, Kv7.3 constitutive
From the text: The Thallium Flux Assay is used as a surrogate indicator of potassium channel activity.
The experimental protocol was adapted from the FluxOR™ II Green Potassium Ion Channel Assay User Guide (Pub. No. MAN0016084, Invitrogen). Conditions were optimized for the Kv7.2/7.3 cell line.
Cell Line: The hKV7.2/7.3 cell line was obtained from Chantest (cat. #CT6147).
Cell Culture: Kv7.2/7.3 cells were maintained in a media containing DMEM/F12; 50/50 (Fisher 11-330), 10% Fetal Bovine Serum (FBS) (Fisher 26-140), 100 units/mL Penicillin-Streptomycin (Fisher 15-140), 0.005 mg/ml Blasticidin (InvivoGen ant-bl-1), 0.5 mg/mL Geneticin (InvivoGen ant-gn-5), and 0.1 mg/mL Zeocin (Fisher R25001). One day prior to experimentation, cells were plated in 96 well clear bottom plates (Corning cat. #353219) in a media without Blasticidin, Geneticin, or Zeocin. In this cell line Kv7.3 channel expression is controlled by a constitutive promoter. Kv7.2 channel expression was induced by adding tetracycline (Sigma T7660) at a final concentration of 10 ng/mL overnight in a cell culture incubator at 37° C. and 5% CO2. On the day of assay, the cell culture medium in the 96-well plates was replaced by assay buffer containing the thallium-sensitive fluorescent sensor, FluxOR II Green prepared according to manufacturer's instructions. The 96-well plates were then incubated for 1 h at 37° C. Following the incubation, the FluxOR II Green-containing solution was replaced with extracellular solution.
Test Compound Plates: The test compound is diluted in a mixture of 0.1% DMSO/extracellular solution at a single concentration of 10 μM. Dilutions were made on a Biomek NXP (BECKMAN COULTER). Extracellular solution contained (in mM: 145 NaCl, 4 KCl, 2 CaCl2), 1 MgCl2, 10 HEPES, and 10 Glucose, pH 7.4).
Measurement and data analysis: Thallium-flux-mediated changes in intracellular fluorescence were made using a plate reader (Enspire, Perkin Elmer) set with an excitation wavelength of 475 nm and an emission wavelength of 530 nm. After a 15 sec baseline measurement, the stimulus buffer containing thallium and potassium was added to the 96-well plate containing FluxOR II Green-loaded cells and test compounds. Fluorescence values at 90 sec were normalized to the positive control (retigabine, 30 μM) and test compound activities were assigned categories according to the formula: “No Activity <0.15, “+” Moderate Activity 0.15-0.7, and “++” High Activity >0.7.

Row | SMILES | Kv7.2/7.3 Activity
1 | COc1ccc(-c2c(C3CCC3)c(NC(=O)C[C@@H]3CC(F)(F)C3(F)F)nn2C)cc1 [Compound 56, (R)-N-(4-cyclobutyl-5-(4-methoxyphenyl)-1-methyl-1H-pyrazol-3-yl)-2-(2,2,3,3-tetrafluorocyclobutyl)acetamide] | ++ (“++” High Activity ≥ 0.7)
2 | COc1ccc(-c2c(C3CCC3)c(NC(=O)C[C@H]3CC(F)(F)C3(F)F)nn2C)cc1 [Compound 57, (S)-N-(4-cyclobutyl-5-(4-methoxyphenyl)-1-methyl-1H-pyrazol-3-yl)-2-(2,2,3,3-tetrafluorocyclobutyl)acetamide] | ++ (“++” High Activity ≥ 0.7)
3 | O=C(C[C@@H]1CC(F)(F)C1(F)F)Nc1nn(CCO)c(-c2ccc(F)cc2)c1C1CCC1 [Compound 58, (R)-N-(4-cyclobutyl-5-(4-fluorophenyl)-1-(2-hydroxyethyl)-1H-pyrazol-3-yl)-2-(2,2,3,3-tetrafluorocyclobutyl)acetamide] | ++ (“++” High Activity ≥ 0.7)
4 | Cn1nc(NC(=O)C[C@@H]2CC(F)(F)C2(F)F)c(C2CCC2)c1-c1cnc(C(F)(F)F)s1 [Compound 59, (R)-N-(4-cyclobutyl-1-methyl-5-(2-(trifluoromethyl)thiazol-5-yl)-1H-pyrazol-3-yl)-2-(2,2,3,3-tetrafluorocyclobutyl)acetamide] | + (“+” Moderate Activity 0.15-0.7)
5 | Cn1nc(NC(=O)C[C@H]2CC(F)(F)C2(F)F)c(C2CCC2)c1-c1cnc(C(F)(F)F)s1 [Compound 60, (S)-N-(4-cyclobutyl-1-methyl-5-(2-(trifluoromethyl)thiazol-5-yl)-1H-pyrazol-3-yl)-2-(2,2,3,3-tetrafluorocyclobutyl)acetamide] | + (“+” Moderate Activity 0.15-0.7)
6 | Cn1nc(NC(=O)C[C@@H]2CC(F)(F)C2(F)F)c(C2CCC2)c1CCc1ccccc1 [Compound 61, (R)-N-(4-cyclobutyl-1-methyl-5-phenethyl-1H-pyrazol-3-yl)-2-(2,2,3,3-tetrafluorocyclobutyl)acetamide] | ++ (“++” High Activity ≥ 0.7)
7 | Cn1nc(NC(=O)C[C@H]2CC(F)(F)C2(F)F)c(C2CCC2)c1CCc1ccccc1 [Compound 62, (S)-N-(4-cyclobutyl-1-methyl-5-phenethyl-1H-pyrazol-3-yl)-2-(2,2,3,3-tetrafluorocyclobutyl)acetamide] | ++ (“++” High Activity ≥ 0.7)
8 | Cn1nc(NC(=O)C[C@@H]2CC(F)(F)C2(F)F)c(C2CCC2)c1Cc1ccc(OC(F)(F)F)cc1 [Compound 63, (R)-N-(4-cyclobutyl-1-methyl-5-(4-(trifluoromethoxy)benzyl)-1H-pyrazol-3-yl)-2-(2,2,3,3-tetrafluorocyclobutyl)acetamide] | ++ (“++” High Activity ≥ 0.7)
9 | Cn1nc(NC(=O)C[C@H]2CC(F)(F)C2(F)F)c(C2CCC2)c1Cc1ccc(OC(F)(F)F)cc1 [Compound 64, (S)-N-(4-cyclobutyl-1-methyl-5-(4-(trifluoromethoxy)benzyl)-1H-pyrazol-3-yl)-2-(2,2,3,3-tetrafluorocyclobutyl)acetamide] | + (“+” Moderate Activity 0.15-0.7)
10 | O=C(C[C@@H]1CC(F)(F)C1(F)F)Nc1nn(CCO)c(Cc2ccccc2)c1C1CCC1 [Compound 65, (R)-N-(5-benzyl-4-cyclobutyl-1-(2-hydroxyethyl)-1H-pyrazol-3-yl)-2-(2,2,3,3-tetrafluorocyclobutyl)acetamide] | ++ (“++” High Activity ≥ 0.7)
11 | Cn1nc(NC(=O)C[C@@H]2CC(F)(F)C2(F)F)c(C2CCC2)c1C1CCCCC1 [Compound 66, (R)-N-(4-cyclobutyl-5-cyclohexyl-1-methyl-1H-pyrazol-3-yl)-2-(2,2,3,3-tetrafluorocyclobutyl)acetamide] | ++ (“++” High Activity ≥ 0.7)
12 | Cn1nc(NC(=O)C[C@H]2CC(F)(F)C2(F)F)c(C2CCC2)c1C1CCCCC1 [Compound 67, (S)-N-(4-cyclobutyl-5-cyclohexyl-1-methyl-1H-pyrazol-3-yl)-2-(2,2,3,3-tetrafluorocyclobutyl)acetamide] | + (“+” Moderate Activity 0.15-0.7)
13 | Cn1nc(NC(=O)CC(C)(C)C(F)(F)F)c(C2CCC2)c1C1CCCCC1 [Compound 68, N-(4-cyclobutyl-5-cyclohexyl-1-methyl-1H-pyrazol-3-yl)-4,4,4-trifluoro-3,3-dimethylbutanamide] | ++ (“++” High Activity ≥ 0.7)
14 | Cn1nc(NC(=O)CC2(C(F)(F)F)CC2)c(C2CCC2)c1C1CCCCC1 [Compound 69, N-(4-cyclobutyl-5-cyclohexyl-1-methyl-1H-pyrazol-3-yl)-2-(1-(trifluoromethyl)cyclopropyl)acetamide] | + (“+” Moderate Activity 0.15-0.7)
15 | Cn1nc(NC(=O)CC2CC(F)(F)C2)c(C2CCC2)c1C1CCCCC1 [Compound 70, N-(4-cyclobutyl-5-cyclohexyl-1-methyl-1H-pyrazol-3-yl)-2-(3,3-difluorocyclobutyl)acetamide] | ++ (“++” High Activity ≥ 0.7)
16 | Cn1nc(NC(=O)CC2(O)CCCC2)c(C2CCC2)c1-c1ccc(OC(F)(F)F)cc1 [Compound 71, N-(4-cyclobutyl-1-methyl-5-(4-(trifluoromethoxy)phenyl)-1H-pyrazol-3-yl)-2-(1-hydroxycyclopentyl)acetamide] | ++ (“++” High Activity ≥ 0.7)
17 | Cn1nc(NC(=O)CC2CC(F)(F)C2)c(C2CCC2)c1-c1ccc(OC(F)(F)F)cc1 [Compound 72, N-(4-cyclobutyl-1-methyl-5-(4-(trifluoromethoxy)phenyl)-1H-pyrazol-3-yl)-2-(3,3-difluorocyclobutyl)acetamide] | ++ (“++” High Activity ≥ 0.7)
18 | Cn1nc(NC(=O)CC2(O)CCCC2)c(C2CCC2)c1-c1ccc(F)cc1 [Compound 73, N-(4-cyclobutyl-5-(4-fluorophenyl)-1-methyl-1H-pyrazol-3-yl)-2-(1-hydroxycyclopentyl)acetamide] | ++ (“++” High Activity ≥ 0.7)
19 | Cn1nc(NC(=O)CC2CC(F)(F)C2)c(C2CCC2)c1-c1ccc(F)cc1 [Compound 74, N-(4-cyclobutyl-5-(4-fluorophenyl)-1-methyl-1H-pyrazol-3-yl)-2-(3,3-difluorocyclobutyl)acetamide] | ++ (“++” High Activity ≥ 0.7)
20 | CCOC(=O)Nc1nn(C)c(-c2ccc(F)cc2)c1C1CCC1 [Compound 75, ethyl (4-cyclobutyl-5-(4-fluorophenyl)-1-methyl-1H-pyrazol-3-yl)carbamate] | + (“+” Moderate Activity 0.15-0.7)
21 | O=C(CC1(C(F)(F)F)CC1)Nc1nn(CCO)c(Cc2ccccc2)c1C1CCC1 [Compound 76, N-(5-benzyl-4-cyclobutyl-1-(2-hydroxyethyl)-1H-pyrazol-3-yl)-2-(1-(trifluoromethyl)cyclopropyl)acetamide] | ++ (“++” High Activity ≥ 0.7)
22 | Cn1nc(NC(=O)CC2(C(F)(F)F)CC2)c(C2CCC2)c1CC1CC1 [Compound 79, N-(4-cyclobutyl-5-(cyclopropylmethyl)-1-methyl-1H-pyrazol-3-yl)-2-(1-(trifluoromethyl)cyclopropyl)acetamide] | ++ (“++” High Activity ≥ 0.7)
23 | Cn1nc(NC(=O)CC2CC(F)(F)C2)c(C2CCC2)c1CC1CC1 [Compound 80, N-(4-cyclobutyl-5-(cyclopropylmethyl)-1-methyl-1H-pyrazol-3-yl)-2-(3,3-difluorocyclobutyl)acetamide] | ++ (“++” High Activity ≥ 0.7)
24 | Cn1nc(NC(=O)CC2(O)CCCC2)c(C2CCC2)c1CC1CC1 [Compound 81, N-(4-cyclobutyl-5-(cyclopropylmethyl)-1-methyl-1H-pyrazol-3-yl)-2-(1-hydroxycyclopentyl)acetamide] | + (“+” Moderate Activity 0.15-0.7)
25 | Cn1nc(NC(=O)CC2(C(F)(F)F)CCC2)c(C2CCC2)c1-c1ccc(OC(F)(F)F)cc1 [Compound 82, N-(4-cyclobutyl-1-methyl-5-(4-(trifluoromethoxy)phenyl)-1H-pyrazol-3-yl)-2-(1-(trifluoromethyl)cyclobutyl)acetamide] | ++ (“++” High Activity ≥ 0.7)
26 | Cn1nc(NC(=O)CC2(C(F)(F)F)CCC2)c(C2CCC2)c1-c1ccc(F)cc1 [Compound 83, N-(4-cyclobutyl-5-(4-fluorophenyl)-1-methyl-1H-pyrazol-3-yl)-2-(1-(trifluoromethyl)cyclobutyl)acetamide] | ++ (“++” High Activity ≥ 0.7)
